Among the data in patent publication US20250101011A1, “PEPTIDYL NITRILE COMPOUND AND USE THEREOF” (SHANGHAI YIDIAN PHARMACEUTICAL TECHNOLOGY DEVELOPMENT CO., …, priority 2022, published 2025) are inhibition and IC50 values, retold here.

The structures appear in SMILES notation.

One test has as its target DPP1 (Homo sapiens (Human), UniProt P53634). As to the kind of experiment: DPP1 activity inhibition test on U937 cells. It is filed as cell-based. To be noted: substrate h-Gly-phe-AFC; for inhibition at 0.005 µM: U-937, 5 nM compound; for inhibition at 0.05 µM: U-937, 50 nM compound; for IC50: intracellular enzyme activity. On the procedure:
After incubation at 37° C. for 1 h, add h-Gly-phe-AFC (10 μL) to each well and start reaction.

The target of another test is rhCathepsin C/DPP1 (Homo sapiens (Human), UniProt P53634). As to the kind of experiment: Test for inhibition of DPP1 enzyme activity. It is filed as biochemical. To be noted: recombinant human cathepsin C/DPP1; substrate Gly-Arg-AMC. On the procedure:
Recombinant human cathepsin, rhCathepsin C/DPP1, purchased from R&D systems
Gly-Arg-AMC (hydrOCHloride), purchased from Cayman chemical
• 1) Preparation and handling of compounds: Accurately weigh the compound and dissolve it in […] of DMSO to prepare a […] of the bulk, which is further diluted as required. • 2) Screening test: Dilute recombinant human cathepsin rhCathepsin C/DPP1 and recombinant human cathepsin rhCathepsin L with an activating buffer solution, and incubate at 37° C. for 60 min. Add 4 μL of test compound to the white well of the 384-well plate. Add 4 μL of the enzyme mixture after incubation to the white wells. Block the 384-well plate and allow to stand at room temperature for 30 min, and add 8 μL of 2-fold diluted Gly-Arg-AMC (hydrochloride). Block the 384-well plate and allow to stand at room temperature for 2 h. Prepare 4× stop solution and add 4 μL stop solution to white wells. Read fluorescence data on the fluorescence meter Victor Nivo35. • 3) Data analysis:
[…] using Prism Graphpad 8.0.

One may read the inhibition as how much of the control response was suppressed. A high value points to strong suppression. One may read the IC50 as the point on the concentration scale where inhibition reaches its midpoint.

Sequence of DPP1 (P53634 25-463): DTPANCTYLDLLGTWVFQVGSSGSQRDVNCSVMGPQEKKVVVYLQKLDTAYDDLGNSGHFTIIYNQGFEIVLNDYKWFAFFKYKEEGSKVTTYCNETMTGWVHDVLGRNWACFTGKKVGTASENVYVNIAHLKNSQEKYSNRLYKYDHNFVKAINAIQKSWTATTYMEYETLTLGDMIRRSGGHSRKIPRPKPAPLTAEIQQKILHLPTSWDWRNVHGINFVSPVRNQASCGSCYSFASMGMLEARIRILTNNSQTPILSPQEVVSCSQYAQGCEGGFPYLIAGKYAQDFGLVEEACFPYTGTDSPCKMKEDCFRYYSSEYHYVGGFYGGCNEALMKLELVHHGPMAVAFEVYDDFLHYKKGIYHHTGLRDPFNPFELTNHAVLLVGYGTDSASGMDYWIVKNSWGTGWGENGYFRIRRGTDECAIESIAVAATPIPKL
Sequence of rhCathepsin C/DPP1 (P53634 25-134): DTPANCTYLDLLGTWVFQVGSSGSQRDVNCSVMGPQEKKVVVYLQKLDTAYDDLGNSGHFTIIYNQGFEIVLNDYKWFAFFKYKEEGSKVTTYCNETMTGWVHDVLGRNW
Sequence of rhCathepsin C/DPP1 (P53634 231-394): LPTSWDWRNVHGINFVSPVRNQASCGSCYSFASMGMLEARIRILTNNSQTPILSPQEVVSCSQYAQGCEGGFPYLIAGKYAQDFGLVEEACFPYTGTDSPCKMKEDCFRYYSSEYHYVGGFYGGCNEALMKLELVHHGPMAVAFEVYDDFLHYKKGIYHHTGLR
Sequence of rhCathepsin C/DPP1 (P53634 395-463): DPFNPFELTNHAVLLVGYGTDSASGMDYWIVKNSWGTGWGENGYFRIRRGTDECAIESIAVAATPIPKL

`N#C[C@H](Cc1ccc(-c2ccc3oc(=O)n(CF)c3c2)cc1)NC(=O)[C@@H]1CNCCCO1` [Compound D02]: at DPP1, the inhibition at 0.005 µM fell in the range of 30 to 75%, the inhibition at 0.05 µM was 75 to 100% and the IC50 was 5.7 nM. Also, the half-inhibitory concentration (IC50) on rhCathepsin C/DPP1 came out at 4.1 nM.

On DPP1, `N#C[C@H](Cc1ccc(-c2ccc3oc(=O)n(C(F)F)c3c2)cc1)NC(=O)[C@@H]1CNCCCO1` [Compound D04] gave an inhibition at 0.005 µM of 30 to 75%, an inhibition at 0.05 µM of 75 to 100% and a half-maximal inhibitory concentration (IC50) of 5.2 nM. In addition, at rhCathepsin C/DPP1, the IC50 is 3.9 nM.

With `N#C[C@H](Cc1ccc(-c2ccc3c(c2)CCC3=O)cc1)NC(=O)[C@@H]1CNCCCO1` [Compound D09], at DPP1, the inhibition at 0.005 µM fell in the range of 30 to 75%, the inhibition at 0.05 µM lay in the range of 75 to 100% and the IC50 turned out to be 10 nM. For the same compound, on rhCathepsin C/DPP1, the IC50 amounted to 5.4 nM.

For `CN1CC2(C1)OC(=O)c1ccc(-c3ccc(C[C@@H](C#N)NC(=O)[C@@H]4CNCCCO4)cc3)cc12` [Compound D19], on DPP1, the inhibition at 0.005 µM is 30 to 75%, the inhibition at 0.05 µM is 75 to 100% and the 50% inhibitory concentration (IC50) came to 41 nM. The concentration for half-maximal inhibition (IC50) on rhCathepsin C/DPP1 was 3.5 nM.

At DPP1, `CN1CC2(C1)OCc1ccc(-c3ccc(C[C@@H](C#N)NC(=O)[C@@H]4CNCCCO4)cc3)cc12` [Compound D20] had an inhibition at 0.005 µM of 30 to 75%, an inhibition at 0.05 µM of 75 to 100% and a 50% inhibitory concentration (IC50) of 35 nM. Further, the IC50 at rhCathepsin C/DPP1 was 3.6 nM.

On DPP1, `N#C[C@H](Cc1ccc(-c2ccc3c(c2)C2(COC2)OC3=O)cc1)NC(=O)[C@@H]1CNCCCO1` [Compound D21] returned an inhibition at 0.005 µM of 30 to 75%, an inhibition at 0.05 µM of 75 to 100% and an IC50 of 29 nM. The IC50 on rhCathepsin C/DPP1 stood at 8 nM.

On DPP1, `N#C[C@H](Cc1ccc(-c2ccc3c(c2)C2(CCN(C4COC4)CC2)OC3)cc1)NC(=O)[C@@H]1CNCCCO1` [Compound D26] had an inhibition at 0.005 µM of 30 to 75%, an inhibition at 0.05 µM of 75 to 100% and an IC50 of 16 nM. The IC50 at rhCathepsin C/DPP1 amounted to 3.1 nM.

At DPP1, `N#C[C@H](Cc1ccc(-c2ccc3c(c2)COC3=O)cc1)NC(=O)[C@@H]1CNCCCO1` [Compound D44] came in with an inhibition at 0.005 µM of 30 to 75%, an inhibition at 0.05 µM of 75 to 100% and an IC50 of 14 nM. The 50% inhibitory concentration (IC50) at rhCathepsin C/DPP1 turned out to be 5.2 nM.

At DPP1, `Cn1c(=O)oc2ccc(-c3ccc(C[C@@H](C#N)NC(=O)[C@@H]4CNCC5(CC5)CO4)c(F)c3)cc21` [Compound D46] returned an inhibition at 0.005 µM of 30 to 75%, an inhibition at 0.05 µM of 75 to 100% and a half-inhibitory concentration (IC50) of 3 nM. Further, at rhCathepsin C/DPP1, the IC50 turned out to be 0.45 nM.

At DPP1, `N#C[C@H](Cc1ccc(-c2ccc3c(c2)C2(CN(C4COC4)C2)OC3)cc1F)NC(=O)[C@@H]1CNCCCO1` [Compound D57] yielded an inhibition at 0.005 µM of 30 to 75%, an inhibition at 0.05 µM of 75 to 100% and an IC50 of 10 nM. Besides, the concentration for half-maximal inhibition (IC50) on rhCathepsin C/DPP1 is 2.2 nM.

In the case of `N#C[C@H](Cc1ccc(-c2ccc3c(c2)CCC3=O)cc1F)NC(=O)[C@@H]1CNCCCO1` [Compound D60], on DPP1, the inhibition at 0.005 µM fell in the range of 30 to 75%, the inhibition at 0.05 µM was in the range of 75 to 100% and it took 4.6 nM to reach half-maximal inhibition (IC50). In addition, the IC50 at rhCathepsin C/DPP1 amounted to 3.7 nM.

Consider `N#C[C@H](Cc1ccc(-c2ccc3c(c2)COC3=O)cc1F)NC(=O)[C@@H]1CNCCCO1` [Compound D61], for which, on DPP1, the inhibition at 0.005 µM is 30 to 75%, the inhibition at 0.05 µM lay in the range of 75 to 100% and the 50% inhibitory concentration (IC50) is 5.3 nM. The IC50 on rhCathepsin C/DPP1 came to 2.5 nM.

For the compound `Cn1cc(-n2c(=O)oc3ccc(-c4ccc(C[C@@H](C#N)NC(=O)[C@@H]5CNCCCO5)c(F)c4)cc32)cn1` [Compound D63], at DPP1, the inhibition at 0.005 µM lay in the range of 30 to 75%, the inhibition at 0.05 µM was 75 to 100% and the IC50 is 6.1 nM. The half-inhibitory concentration (IC50) at rhCathepsin C/DPP1 stood at 1.7 nM.

At DPP1, `CN1CC(n2c(=O)oc3ccc(-c4ccc(C[C@@H](C#N)NC(=O)[C@@H]5CNCCCO5)c(F)c4)cc32)C1` [Compound D67] returned an inhibition at 0.005 µM of 30 to 75%, an inhibition at 0.05 µM of 75 to 100% and an IC50 of 32 nM. On rhCathepsin C/DPP1, the concentration for half-maximal inhibition (IC50) was 0.18 nM.

Take `CN1CC(n2c(=O)sc3ccc(-c4ccc(C[C@@H](C#N)NC(=O)[C@@H]5CNCCCO5)c(F)c4)cc32)C1` [Compound D70]: on DPP1, the inhibition at 0.005 µM was in the range of 30 to 75%, the inhibition at 0.05 µM lay within 75 to 100% and 13.2 nM corresponded to half-maximal inhibition (IC50). Also, at rhCathepsin C/DPP1, the IC50 worked out at 0.58 nM.

Regarding `CC1OC(=O)c2ccc(-c3ccc(C[C@@H](C#N)NC(=O)[C@@H]4CNCCCO4)c(F)c3)cc21` (stereo partly shown) [Compound D73], at DPP1, the inhibition at 0.005 µM lay in the range of 30 to 75%, the inhibition at 0.05 µM was in the range of 75 to 100% and the IC50 stood at 3.8 nM. Besides, the half-inhibitory concentration (IC50) at rhCathepsin C/DPP1 amounted to 2.5 nM.

In the case of `C[C@@H]1OC(=O)c2ccc(-c3ccc(C[C@@H](C#N)NC(=O)[C@@H]4CNCCCO4)c(F)c3)cc21` [Compound D74], at DPP1, the inhibition at 0.005 µM was 30 to 75%, the inhibition at 0.05 µM lay in the range of 75 to 100% and inhibition was half-maximal at 8 nM (IC50). Further, the IC50 at rhCathepsin C/DPP1 worked out at 2.9 nM.

At DPP1, `C[C@H]1OC(=O)c2ccc(-c3ccc(C[C@@H](C#N)NC(=O)[C@@H]4CNCCCO4)c(F)c3)cc21` [Compound D75] registered an inhibition at 0.005 µM of 30 to 75%, an inhibition at 0.05 µM of 75 to 100% and an IC50 of 3.8 nM. Moreover, the concentration for half-maximal inhibition (IC50) on rhCathepsin C/DPP1 was found to be 2.3 nM.

At DPP1, `N#C[C@H](Cc1ccc(-c2ccc3c(c2)COC3=O)cc1F)NC(=O)[C@@H]1CNCC2(CC2)CO1` [Compound D78] returned an inhibition at 0.005 µM of 30 to 75%, an inhibition at 0.05 µM of 75 to 100% and an IC50 of 2.9 nM. Besides, the half-maximal inhibitory concentration (IC50) at rhCathepsin C/DPP1 is 0.72 nM.

At DPP1, `CC1CNC[C@@H](C(=O)N[C@H](C#N)Cc2ccc(-c3ccc4oc(=O)n(C)c4c3)cc2F)OC1` (stereo partly shown) [Compound D85] yielded an inhibition at 0.005 µM of 30 to 75%, an inhibition at 0.05 µM of 75 to 100% and a half-maximal inhibitory concentration (IC50) of 3 nM. Besides, the 50% inhibitory concentration (IC50) at rhCathepsin C/DPP1 came out at 3.2 nM.

On DPP1, `N#C[C@H](Cc1ccc(-c2ccc3c(c2)C2(CCN(C4COC4)CC2)OC3=O)cc1F)NC(=O)[C@@H]1CNCCCO1` [Compound D92] displayed an inhibition at 0.005 µM of 30 to 75%, an inhibition at 0.05 µM of 75 to 100% and an IC50 of 5.9 nM. For the same compound, on rhCathepsin C/DPP1, the 50% inhibitory concentration (IC50) was 0.32 nM.

As for `N#C[C@H](Cc1ccc(-c2ccc3sc(=O)n(C4COC4)c3c2)cc1F)NC(=O)[C@@H]1CNCCCO1` [Compound D106], the IC50 at DPP1 worked out at 4.3 nM; on rhCathepsin C/DPP1 it was 1.36 nM.

For the compound `CN1CCC(=O)c2ccc(-c3ccc(C[C@@H](C#N)NC(=O)[C@@H]4CNCCCO4)c(F)c3)cc21` [Compound D118], the figures for the concentration for half-maximal inhibition (IC50) at DPP1 and on rhCathepsin C/DPP1 were 2.1 nM and 1.6 nM, respectively.

Consider `CCN1CCC(=O)c2ccc(-c3ccc(C[C@@H](C#N)NC(=O)[C@@H]4CNCCCO4)c(F)c3)cc21` [Compound D120], for which the IC50 is 3.42 nM on DPP1 and 2.3 nM at rhCathepsin C/DPP1.

Consider `C[C@H]1OC(=O)c2ccc(-c3ccc(C[C@@H](C#N)NC(=O)[C@@H]4CNC[C@@H](F)CO4)c(F)c3)cc21` [Compound D123], for which the IC50 against DPP1 worked out at 15 nM; on rhCathepsin C/DPP1 it was 1.4 nM.

For `C[C@H]1CNC[C@@H](C(=O)N[C@H](C#N)Cc2ccc(-c3ccc4c(c3)N(C)CCC4=O)cc2F)OC1` [Compound D124], the half-maximal inhibitory concentration (IC50) on rhCathepsin C/DPP1 came out at 11.2 nM.

For the compound `CN1CCC(=O)c2ccc(-c3ccc(C[C@@H](C#N)NC(=O)[C@@H]4CNCCCO4)cc3)cc21` [Compound D125], on rhCathepsin C/DPP1, the IC50 worked out at 6.7 nM.

Turning to `C[C@H]1OC(=O)c2ccc(-c3ccc(C[C@@H](C#N)NC(=O)[C@@H]4CNCCCO4)[se]3)cc21` [Compound D126], the 50% inhibitory concentration (IC50) at rhCathepsin C/DPP1 came out at 10.8 nM.

Turning to `[2H]C([2H])([2H])[C@H]1OC(=O)c2ccc(-c3ccc(C[C@@H](C#N)NC(=O)[C@@H]4CNCCCO4)c(F)c3)cc21` [Compound D127], the concentration for half-maximal inhibition (IC50) was 4.6 nM against DPP1 and 4.2 nM on rhCathepsin C/DPP1.
